{
  "source": "patent US6921775B2",
  "about": "“Methods for modulating brain damage” (Children's Medical Center Corporation, priority 2001, dated 2005)",
  "system": "AMPA receptors in cerebral white matter",
  "test": "Intracerebral AMPA injection white matter injury",
  "type": "in vivo",
  "method": "The methods used in this example are described in Follett et al. (2000) J. Neurosci. 20:9235-9241, incorporated by reference herein.\nNBQX attenuation of the selective white matter injury after hypoxia/ischemia implicated GluR-mediated toxicity as an important mechanism of injury in immature OLs. To confirm a relationship between the activation of AMPA receptors in cerebral white matter and the vulnerability to injury, AMPA was injected directly into immature white matter. […] Minimal to no injury was present in vehicle-injected controls (M K801 alone; n=7) at the same age (t test, p<0.001).\nTo determine whether AMPA toxicity was age dependent, lesion size after intracerebral AMPA injections at P4, P7, and P11 was compared.",
  "data": [
    {"smiles": "Cc1o[nH]c(=O)c1CC(N)C(=O)O", "note": "(centres unmarked) [AMPA]", "values": [
      {"measurement": "white matter injury after intracerebral injection", "setting": "P7 rat pups, 5 nmol of AMPA plus 5 nmol of MK-801, vs MK-801 alone p<0.001", "result": "produced white matter injury"},
      {"measurement": "white matter injury (pericallosal lesion size) after injection at P4 and P11 compared with P7", "setting": "intracerebral AMPA, one-way ANOVA p<0.001", "result": "significantly less white matter injury"}
    ]}
  ]
}
